Consider 25 molecules from patent US20250388574A1, “HETEROCYCLIC COMPOUNDS AS TRIGGERING RECEPTOR EXPRESSED ON MYELOID CELLS 2 AGONISTS AND METHODS OF USE” (AMGEN INC., priority 2020, published 2025).

SMILES strings stand for the structures. pEC50: −log10 of the molar value.

For the test, the target named is hTREM2 (Homo sapiens, UniProt Q9NZC2). Kind of test: Phospho-Syk AlphaScreen/AlphaLISA assay in TREM2 and DAP12 overexpressing HEK293 cells (Example A1). As to conditions: HEK293 cells; for pEC50: read-out: hTREM2 EC50. Type of test: cell-based. Details: expressed in transfected cells. The procedure, abridged:
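Single-cell-cloned HEK293 stably overexpressing TREM2 and DAP12, plated 20,000 cells/well for 20 h, then exposed to compounds (1% DMSO) 45 min at room temperature. Lysates probed for phospho-Syk by AlphaLISA sandwich (anti-pSyk, biotinylated anti-Syk); signal normalized to percent of control (100 nM anti-TREM2 antibody vs isotype) and fitted by 4-parameter logistic.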

Chain of hTREM2 (Q9NZC2 19-230): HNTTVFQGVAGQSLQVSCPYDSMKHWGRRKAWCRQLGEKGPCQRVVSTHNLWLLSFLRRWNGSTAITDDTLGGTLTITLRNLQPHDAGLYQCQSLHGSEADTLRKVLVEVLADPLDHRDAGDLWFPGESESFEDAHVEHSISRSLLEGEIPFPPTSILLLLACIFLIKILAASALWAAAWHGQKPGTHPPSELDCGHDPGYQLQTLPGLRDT
Chain of hTREM2 (O43914 22-113 partner): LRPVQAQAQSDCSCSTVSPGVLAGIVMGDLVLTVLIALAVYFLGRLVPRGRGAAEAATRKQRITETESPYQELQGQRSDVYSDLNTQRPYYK

Consider `Cc1nc2cc(N3CCO[C@H](c4cnn(C)c4)C3)nc(-c3ccc(Cl)cc3F)c2c(=O)n1C` [Example 2, 5-(4-chloro-2-fluorophenyl)-2,3-dimethyl-7-((2R)-2-(1-methyl-1H-pyrazol-4-yl)-4-morpholinyl)pyrido[4,3-d]pyrimidin-4(3H)-one], for which the Emax entry is “+++ (Emax>200 and ≤300)”; the pEC50 was 5.52 to 6.30.
As for `Cc1nc2cc(N3CCO[C@@H](c4cnn(C)c4)C3)cc(-c3ccc(Cl)cc3F)c2c(=O)n1C` [Example 3, 5-(4-chloro-2-fluorophenyl)-2,3-dimethyl-7-((2S)-2-(1-methyl-1H-pyrazol-4-yl)-4-morpholinyl)-4(3H)-quinazolinone], the Emax entry is “+++ (Emax>200 and ≤300)”; the pEC50 was above 7.30.
Regarding `Cc1nc2cc(N3CCO[C@H](c4cnn(C)c4)C3)cc(-c3ccc(Cl)cc3F)c2c(=O)n1C` [Example 4, 5-(4-chloro-2-fluorophenyl)-2,3-dimethyl-7-((2R)-2-(1-methyl-1H-pyrazol-4-yl)-4-morpholinyl)-4(3H)-quinazolinone], the Emax result was “+++ (Emax>200 and ≤300)”; the pEC50 was 5.52 to 6.30.
Consider `Cc1nc2cc(N3CCO[C@@H](c4cnn(C)c4)C3)nc(-c3ccc(Cl)cc3)c2c(=O)n1C` [Example 5, 5-(4-chlorophenyl)-2,3-dimethyl-7-((2S)-2-(1-methyl-1H-pyrazol-4-yl)-4-morpholinyl)-pyrido[4,3-d]pyrimidin-4(3H)-one], for which the Emax entry is “++++ (Emax>300)” and the pEC50 is 6.30 to 7.30.
On to `Cc1nc2cc(N3CCO[C@H](c4cnn(C)c4)C3)nc(-c3ccc(Cl)cc3)c2c(=O)n1C` [Example 6, 5-(4-chlorophenyl)-2,3-dimethyl-7-((2R)-2-(1-methyl-1H-pyrazol-4-yl)-4-morpholinyl)pyrido[4,3-d]pyrimidin-4(3H)-one], for which the Emax result is “++ (Emax>100 and ≤200)”; the negative logarithm of the EC50 (pEC50) was 5.52 to 6.30.
With `Cc1nc2cc(N3CCO[C@@H](c4cnn(C)c4)C3)nc(-c3ccc(Cl)c(F)c3)c2c(=O)n1C` [Example 7, 5-(4-chloro-3-fluorophenyl)-2,3-dimethyl-7-((2S)-2-(1-methyl-1H-pyrazol-4-yl)-4-morpholinyl)pyrido[4,3-d]pyrimidin-4(3H)-one], the Emax entry was “++++ (Emax>300)” and the pEC50 is 6.30 to 7.30.
Consider `Cc1nc2cc(N3CCO[C@@H](c4cnn(C)c4)C3)nc(-c3ccc(F)cc3F)c2c(=O)n1C` [Example 8, 5-(2,4-difluorophenyl)-2,3-dimethyl-7-((2S)-2-(1-methyl-1H-pyrazol-4-yl)-4-morpholinyl)-pyrido[4,3-d]pyrimidin-4(3H)-one], for which the Emax entry is recorded as “++++ (Emax>300)” and the pEC50 is 6.30 to 7.30.
On to `Cc1nc2cc(N3CCO[C@@H](c4cnn(C)c4)C3)nc(-c3ccc(F)c(F)c3F)c2c(=O)n1C` [Example 9, 2,3-dimethyl-7-((2S)-2-(1-methyl-1H-pyrazol-4-yl)-4-morpholinyl)-5-(2,3,4-trifluorophenyl)pyrido[4,3-d]pyrimidin-4(3H)-one], for which the Emax result is “+++ (Emax>200 and ≤300)”; the pEC50 is 6.30 to 7.30.
For the molecule `Cc1nc2cc(N3CCO[C@@H](c4cnn(C)c4)C3)nc(-c3cc(F)c(F)cc3F)c2c(=O)n1C` [Example 10, 2,3-dimethyl-7-((2S)-2-(1-methyl-1H-pyrazol-4-yl)-4-morpholinyl)-5-(2,4,5-trifluorophenyl)pyrido[4,3-d]pyrimidin-4(3H)-one], the Emax entry was “++++ (Emax>300)” and the pEC50 was 6.30 to 7.30.
On the same counts, the results for `Cc1nc2cc(N3CCO[C@@H](c4cnn(C)c4)C3)nc(-c3cc(F)c(Cl)cc3F)c2c(=O)n1C` [Example 11, 5-(4-chloro-2,5-difluorophenyl)-2,3-dimethyl-7-((2S)-2-(1-methyl-1H-pyrazol-4-yl)-4-morpholinyl)pyrido[4,3-d]pyrimidin-4(3H)-one] are “++++ (Emax>300)” and 6.30 to 7.30.
For the molecule `Cc1ccc(-c2nc(N3CCO[C@@H](c4cnn(C)c4)C3)cc3nc(C)n(C)c(=O)c23)c(F)c1` [Example 12, 5-(2-fluoro-4-methylphenyl)-2,3-dimethyl-7-((2S)-2-(1-methyl-1H-pyrazol-4-yl)-4-morpholinyl)pyrido[4,3-d]pyrimidin-4(3H)-one], the negative logarithm of the EC50 (pEC50) is 6.30 to 7.30.
Turning to `Cc1nc2cc(N3CCO[C@@H](c4cnn(C)c4)C3)nc(-c3ccc(C(F)(F)F)cc3F)c2c(=O)n1C` [Example 13, 5-(2-fluoro-4-(trifluoromethyl)phenyl)-2,3-dimethyl-7-((2S)-2-(1-methyl-1H-pyrazol-4-yl)-4-morpholinyl)pyrido[4,3-d]pyrimidin-4(3H)-one], the Emax result is “++++ (Emax>300)” and the negative-log EC50 (pEC50) was 6.30 to 7.30.
With `Cc1nc2cc(N3CCO[C@@H](c4cnn(C)c4)C3)nc(-c3ccc(Cl)c(F)c3F)c2c(=O)n1C` [Example 14, 5-(4-chloro-2,3-difluorophenyl)-2,3-dimethyl-7-((2S)-2-(1-methyl-1H-pyrazol-4-yl)-4-morpholinyl) pyrido[4,3-d]pyrimidin-4(3H)-one], the Emax result is reported as “++++ (Emax>300)” and the pEC50 is 6.30 to 7.30.
On the same counts, the results for `Cc1nc2cc(N3CCOC(c4cnn(C)c4)C3)cc(-c3ncc(Cl)cc3F)c2c(=O)n1C` (stereo not drawn) [Example 15, 5-(5-chloro-3-fluoro-2-pyridinyl)-2,3-dimethyl-7-(2-(1-methyl-1H-pyrazol-4-yl)-4-morpholinyl)-4(3H)-quinazolinone] are “++++ (Emax>300)” and 5.52 to 6.30.
For the molecule `Cc1cc(Cl)cnc1-c1nc(N2CCOC(c3cnn(C)c3)C2)cc2nc(C)n(C)c(=O)c12` (stereo not drawn) [Example 16, 5-(5-chloro-3-methyl-2-pyridinyl)-2,3-dimethyl-7-(2-(1-methyl-1H-pyrazol-4-yl)-4-morpholinyl)pyrido[4,3-d]pyrimidin-4(3H)-one], the Emax entry is “+ (Emax>45 and ≤100)”; the negative-log EC50 (pEC50) is 4.00 to 5.52.
As for `Cc1nc2cc(N3CCO[C@@H](c4cnn(C)c4)C3)nc(-c3ccc(C(F)(F)F)nc3)c2c(=O)n1C` [Example 17, 2,3-dimethyl-7-((2S)-2-(1-methyl-1H-pyrazol-yl)-4-morpholinyl)-5-(6-(trifluoromethyl)-3-pyridinyl)pyrido[4,3-d]pyrimidin-4(3H)-one], the pEC50 is 5.52 to 6.30.
Regarding `Cc1nc2cc(N3CCO[C@@H](c4cnn(C)c4)C3)nc(-c3ccc(Cl)cc3F)c2c(=O)n1C1CCCCC1` [Example 18, 5-(4-chloro-2-fluorophenyl)-3-cyclohexyl-2-methyl-7-((2S)-2-(1-methyl-1H-pyrazol-4-yl)-4-morpholinyl)pyrido[4,3-d]pyrimidin-4(3H)-one], the Emax result was “++ (Emax>100 and ≤200)”; the pEC50 is 5.52 to 6.30.
For `Cc1nc2cc(N3CCO[C@@H](c4cnn(C)c4)C3)nc(-c3ccc(Cl)cc3F)c2c(=O)n1CC(F)(F)F` [Example 19, 5-(4-chloro-2-fluorophenyl)-2-methyl-7-((2S)-2-(1-methyl-1H-pyrazol-4-yl)-4-morpholinyl)-3-(2,2,2-trifluoroethyl)pyrido[4,3-d]pyrimidin-4(3H)-one], the Emax entry is “++++ (Emax>300)” and the pEC50 is above 7.30.
Take `Cc1nc2cc(N3CCO[C@@H](c4cnn(C)c4)C3)nc(-c3ccc(Cl)cc3F)c2c(=O)n1C1CC1` [Example 20, 5-(4-chloro-2-fluorophenyl)-3-cyclopropyl-2-methyl-7-((2S)-2-(1-methyl-1H-pyrazol-4-yl)-4-morpholinyl)pyrido[4,3-d]pyrimidin-4(3H)-one]: the Emax result is recorded as “++++ (Emax>300)” and the pEC50 is 6.30 to 7.30.
Regarding `CCCn1c(C)nc2cc(N3CCOC(c4cnn(C)c4)C3)nc(-c3ncc(Cl)cc3F)c2c1=O` (stereo not drawn) [Example 21, 5-(5-chloro-3-fluoro-2-pyridinyl)-2-methyl-7-(2-(1-methyl-1H-pyrazol-4-yl)-4-morpholinyl)-3-propylpyrido-[4,3-d]pyrimidin-4(3H)-one], the Emax entry is recorded as “++++ (Emax>300)” and the negative logarithm of the EC50 (pEC50) was 6.30 to 7.30.
The corresponding values for `Cc1nc2cc(N3CCO[C@@H](c4cn[nH]c4)C3)nc(-c3ccc(Cl)cc3F)c2c(=O)n1C` [Example 22, 5-(4-chloro-2-fluorophenyl)-2,3-dimethyl-7-((2S)-2-(1H-pyrazol-4-yl)-4-morpholinyl)pyrido[4,3-d]pyrimidin-4(3H)-one] are “++++ (Emax>300)” and above 7.30.
For `Cc1nc2cc(N3CCOC(C)(c4cnn(C)c4)C3)nc(-c3ccc(Cl)cc3F)c2c(=O)n1C` (stereo not drawn) [Example 31, 5-(4-chloro-2-fluorophenyl)-2,3-dimethyl-7-(2-methyl-2-(1-methyl-1H-pyrazol-4-yl)-4-morpholinyl)pyrido[4,3-d]pyrimidin-4(3H)-one], the Emax result was “++++ (Emax>300)” and the pEC50 is 4.00 to 5.52.
`Cc1nc2cc(N3CCOC(C4CCC4)C3)nc(-c3ccc(Cl)cc3F)c2c(=O)n1C` (stereo not drawn) [Example 33, 5-(4-chloro-2-fluorophenyl)-7-(2-cyclobutyl-4-morpholinyl)-2,3-dimethylpyrido[4,3-d]pyrimidin-4(3H)-one]: the Emax result is reported as “++++ (Emax>300)” and the pEC50 is 5.52 to 6.30.
On the same counts, the results for `Cc1nc2cc(N3CCOC(c4ccnnc4)C3)nc(-c3ccc(Cl)cc3F)c2c(=O)n1C` (stereo not drawn) [Example 50, 5-(4-chloro-2-fluorophenyl)-2,3-dimethyl-7-(2-(4-pyridazinyl)-4-morpholinyl)pyrido[4,3-d]pyrimidin-4(3H)-one] are “++++ (Emax>300)” and 6.30 to 7.30.
As for `Cc1nc2cc(N3CCOC(c4cncnc4)C3)nc(-c3ccc(Cl)cc3F)c2c(=O)n1C` (stereo not drawn) [Example 51, 5-(4-chloro-2-fluorophenyl)-2,3-dimethyl-7-(2-(5-pyrimidinyl)-4-morpholinyl)pyrido[4,3-d]pyrimidin-4(3H)-one], the Emax result is “+++ (Emax>200 and ≤300)”; the pEC50 is 6.30 to 7.30.
